Key:
Format in all cases: cell-based
MDA-MB-231 (breast) = assay: In vitro cell proliferation assay (SRB), MDA-MB-231; conditions: Homo sapiens, SRB method, 96 hours, read-out: Inhibition of cell growth (IC50, μM) MDA-MB-231
Protocol: (§1) Cancer cell lines to determine the effect of 5, 6, or 7-substituted-3-(hetero)arylisoquinolinamine compounds were obtained from the following sources: Human MDA-MB-231 (breast), PC3 (prostate), HCT-15 (colon), HCT116 (colon), OVCAR-3 (ovary), Caki-1 (kidney), PANC-1 (pancreas), SNB-19 (glioblastoma) and SK-MEL-28 (melanoma) from the American Type Culture Collection (ATCC) (Manassas, Va.). PC3, OVCAR-3, SK-MEL-28 and SNB-19 were grown in RPMI1640 medium (Invitrogen, Carlsbad, Calif.) supplemented with 10% fetal bovine serum (“FBS”), 1 mM sodium pyruvate, 10 mM HEPES and 100 U/ml penicillin and 100 μg/ml streptomycin (“P/S”). MDA-MB-231, Caki-1, HCT-15 (colon) and PANC-1 cells were maintained in Dulbecco's modified Eagle's medium (“DMEM”, Invitrogen) supplemented with 10% FBS, P/S and 10 mM HEPES. HCT116 cells were maintained in DMEM supplemented with 10% FBS, P/S and 10 mM HEPES for in vitro cell proliferation assay and in RPMI1640 medium supplemented with 10% FBS, 1 mM sodium pyruvate, 10 mM HEPES and P/S for in vitro cell cycle analysis. All cells were incubated at 37° C. under humidified 5% CO2.
(§2) The growth inhibition of the 5, 6, or 7-substituted-3-(hetero)arylisoquinolinamine derivatives against a variety of human tumor cells was evaluated to study the relative importance of particular substituent groups on the compounds. The 5, 6, or 7-substituted-3-(hetero)arylisoquinolinamine derivatives, prepared as described above, were tested with DMSO as a control.
(§3) The growth inhibition assay of representative 5, 6, or 7-substituted-3-(hetero)arylisoquinolinamine derivatives against human tumor cell lines was performed using the Sulforhodamine B (“SRB”) method (Skehan et al., J. National Cancer Institute, 82: 1107-1112 (1990)). Briefly, exponentially growing tumor cells were seeded into a 96-well plate at a density of 2-3×10^3 cells/well and treated with 5, 6, or 7-substituted-3-(hetero)arylisoquinolinamine compounds the next day. Triplicate wells were used for each treatment. The cells were incubated with the various compounds for 96 hours at 37° C. in a humidified 5% CO2 atmosphere. After 96-hour incubation, cells were fixed with 10% trichloroacetic acid (“TCA”), incubated for 1 hour at 4° C., and washed 3 times with tap water. Subsequently, cells were stained with 0.4% sulforhodamine B in 1% acetic acid for 30 minutes, washed 4 times with 1% acetic acid, and air-dried again. After 5 minutes agitation in 10 mM Tris solution, the absorbance of each well was measured at 530 nm using Benchmark Plus Microplate reader (Bio-Rad Laboratories, Hercules, Calif.).
(§4) To translate the OD530 values into the number of live cells in each well, the OD530 values were compared to those on standard OD530-versus-cell number curves generated for each cell line. The percent survival was calculated using the formula: % Survival=live cell number [test]/live cell number [control]×100
(§5) The IC50 values were calculated by non-linear regression analysis.

PANC-1 (pancreas) = assay: In vitro cell proliferation assay (SRB), PANC-1; conditions: Homo sapiens, SRB method, 96 hours, read-out: Inhibition of cell growth (IC50, μM) PANC-1
Protocol: as §1, §2, §3, §4, §5

HCT116 (colon) = assay: In vitro cell proliferation assay (SRB), HCT116; conditions: Homo sapiens, HCT-116; SRB method, 96 hours; Table 3; read-out: Inhibition of cell growth (IC50, μM) HCT116
Protocol: as §1, §2, §3, §4, §5

PC3 (prostate) = assay: In vitro cell proliferation assay (SRB), PC3; conditions: Homo sapiens; SRB method, 96 hours; read-out: Inhibition of cell growth (IC50, μM) PC3
Protocol: as §1, §2, §3, §4, §5

OVCAR-3 (ovary) = assay: In vitro cell proliferation assay (SRB), OVCAR3; conditions: Homo sapiens, SRB method, 96 hours, read-out: Inhibition of cell growth (IC50, μM) OVCAR3
Protocol: as §1, §2, §3, §4, §5

SK-MEL-28 (melanoma) = assay: In vitro cell proliferation assay (SRB), SK-MEL-28; conditions: Homo sapiens, SRB method, 96 hours, read-out: Inhibition of cell growth (IC50, μM) SK-MEL-28
Protocol: as §1, §2, §3, §4, §5

Caki-1 (kidney) = assay: In vitro cell proliferation assay (SRB), Caki-1; conditions: Homo sapiens, SRB method, 96 hours, read-out: Inhibition of cell growth (IC50, μM) Caki-1
Protocol: as §1, §2, §3, §4, §5

SNB-19 (glioblastoma) = assay: In vitro cell proliferation assay (SRB), SNB19; conditions: Homo sapiens, SRB method, 96 hours, read-out: Inhibition of cell growth (IC50, μM) SNB19
Protocol: as §1, §2, §3, §4, §5

human cancer cell lines = assay: Growth inhibition against the panel of human tumor cell lines (SRB), overall statements; conditions: Table 3 cell lines
Protocol: as §1, §2, §3, §4, §5
Using QSAR and medicinal chemistry techniques, a large number of compounds, including the compounds shown in Table 1-2 above, were synthesized. The synthesized compounds were screened against at least four cancer cell lines, PANC-1, MDA-MB-231, HCT116 and Caki-1, at approximately 1 μM concentration. Compounds showing activity in at least one of these cell lines were selected for further screening. From these compounds, thirty compounds were selected for further evaluation as broad-spectrum anti-proliferative agents as shown in the following Table 3.

Structure (SMILES)	IC50 (MDA-MB-231 (breast))	IC50 (PANC-1 (pancreas))	IC50 (HCT116 (colon))	IC50 (PC3 (prostate))	IC50 (OVCAR-3 (ovary))	IC50 (SK-MEL-28 (melanoma))	IC50 (SNB-19 (glioblastoma))	IC50 (Caki-1 (kidney))	activity in growth inhibition of human cancer cell compared to Compound 23 (human cancer cell lines)
COc1ccc(-c2cc3cc(C)ccc3c(N)n2)c(C)c1 [Compound 31, 3-(4-Methoxy-2-methylphenyl)-6-methylisoquinolin-1-amine]	0.15 µM	0.24 µM	0.17 µM	0.25 µM	0.17 µM	0.29 µM	0.28 µM	0.12 µM	equal or better activity
Cc1ccc2c(N)nc(-c3c(C)cccc3C)cc2c1 [Compound 34, 6-Methyl-3-(2,6-dimethylphenyl)isoquinolin-1-amine]	0.14 µM	0.21 µM	0.17 µM	0.24 µM	0.16 µM	0.23 µM	0.24 µM	0.12 µM	equal or better activity
Cc1ccc(-c2cc3cc(C)ccc3c(N)n2)cc1 [Compound 36, 6-Methyl-3-p-tolylisoquinolin-1-amine]	0.15 µM	0.2 µM	0.18 µM	0.22 µM	0.15 µM	0.25 µM	0.21 µM	0.16 µM	equal or better activity
Cc1ccc2cc(-c3ccc4c(c3)OCO4)nc(N)c2c1 [Compound 45, 3-(Benzo[d][1,3]dioxol-6-yl)-7-methylisoquinolin-1-amine]	0.15 µM	0.37 µM	0.18 µM	0.25 µM	0.23 µM	0.42 µM	0.38 µM	0.13 µM	equal or better activity
COc1cccc(-c2cc3cc(OC)c(OC)cc3c(N)n2)c1 [Compound 52, 6,7-Dimethoxy-3-(3-methoxyphenyl)isoquinolin-1-amine]	0.14 µM	0.19 µM	0.16 µM	0.18 µM	0.074 µM	0.23 µM	0.22 µM	0.17 µM	equal or better activity

More lines, main results first:

IC50 (MDA-MB-231 (breast))	IC50 (PANC-1 (pancreas))	IC50 (HCT116 (colon))	IC50 (PC3 (prostate))	IC50 (OVCAR-3 (ovary))	IC50 (SK-MEL-28 (melanoma))	IC50 (SNB-19 (glioblastoma))	Structure (SMILES)	IC50 (Caki-1 (kidney))	activity in growth inhibition of human cancer cell compared to Compound 23 (human cancer cell lines)
0.027 µM	0.026 µM	0.029 µM	0.048 µM	0.025 µM	0.045 µM	0.057 µM	COc1cc(OC)cc(-c2cc3ccc(N(C)C)cc3c(N)n2)c1.Cl [Compound 16, 3-(3,5-Dimethoxyphenyl)-N^7,N^7-dimethylisoquinoline-1,7-diamine hydrochloride]	0.038 µM	equal or better activity
0.059 µM	0.11 µM	0.064 µM	0.19 µM	0.071 µM	0.11 µM	0.094 µM	COc1cccc(-c2cc3cc(N(C)C)ccc3c(N)n2)c1 [Compound 21, 3-(3-Methoxyphenyl)-N^6,N^6-dimethyl-isoquinoline-1,6-diamine]	0.068 µM	equal or better activity
0.14 µM	0.31 µM	0.19 µM	0.25 µM	0.18 µM	0.34 µM	0.29 µM	COc1cccc(-c2cc3cc(C)ccc3c(N)n2)c1 [Compound 25, 3-(3-Methoxyphenyl)-6-methylisoquinolin-1-amine]	0.13 µM	equal or better activity
0.13 µM	0.22 µM	0.16 µM	0.19 µM	0.16 µM	0.22 µM	0.23 µM	Cc1ccc2c(N)nc(-c3ccc4c(c3)OCO4)cc2c1 [Compound 28, 3-(Benzo[d][1,3]dioxol-6-yl)-6-methylisoquinolin-1-amine]	0.11 µM	equal or better activity
0.079 µM	0.18 µM	0.12 µM	0.2 µM	0.13 µM	0.21 µM	0.2 µM	COc1ccc(-c2cc3ccc(C)cc3c(N)n2)c(C)c1 [Compound 42, 3-(4-Methoxy-2-methylphenyl)-7-methylisoquinolin-1-amine]	0.065 µM	equal or better activity
0.075 µM	0.2 µM	0.12 µM	0.26 µM	0.1 µM	0.18 µM	0.16 µM	Cc1ccc2cc(-c3ccccc3C)nc(N)c2c1 [Compound 48, 7-Methyl-3-o-tolylisoquinolin-1-amine]	0.14 µM	equal or better activity
0.03 µM	0.058 µM	0.042 µM	0.07 µM	0.042 µM	0.051 µM	0.052 µM	COc1ccc(C)c(-c2cc3ccc(C)cc3c(N)n2)c1 [Compound 50, 3-(5-Methoxy-2-methylphenyl)-7-methyl-isoquinolin-1-amine]	0.047 µM	equal or better activity

— patent US8314123B2, “5, 6, or 7-substituted -3-(hetero) arylisoquinolinamine derivatives and therapeutic use thereof” (Rexahn Pharmaceuticals, Inc., priority 2006, dated 2012)
